US20170066801A1, “ALPHA3BETA HYDROGEN BOND SURROGATE MACROCYCLES AS MODULATORS OF RAS” (NEW YORK UNIVERSITY, priority 2014, published 2017)

Tests used:
[1] = tested on: panel of six human cancer cell lines; assay: Growth and viability of a panel of six human cancer cell lines; assay type: cell-based; details: single administration of 5 μM, six days
Method: Various indicated cell lines were plated at low density (˜500-1000 cells per well) in a 96-well format. 12 hours post-plating, media was supplemented with either PBS vehicle, or indicated dosage, and cells were allowed to grow for ˜5.5 days. Cells were subsequently fixed for 1 hour with a 3.7% formaldehyde solution in PBS, and stained with Syto-60 nucleic acid stain (MANUFACTURER) in solution (1:2000 Syto-60, 0.5% Triton X-100, 100 ug/mL RNAse-A, in PBS). Syto-60 stained cells were subjected to quantitative imaging in 96-well plates (Odyssey® Imager, LI-COR Biosciences; excitation: 652; emission: 678) with a 3.0 mm z-axis offset to the scan-head to get the cellular nuclei in the optimal focal plane for quantification. Absolute fluorescence intensity was normalized to the vehicle control for each respective cell line at each dose. Normalized values were visualized on a semilog plot, and data was subjected to non-linear sigmoidal dose-response to determine half-maximal effective concentration (EC50) using GraphPad Prism version 6.00 for OSX, (GraphPad Software, La Jolla Calif. USA, www.graphpad.com).
To investigate the functional consequence of inhibiting Ras activation in the context of oncogenic mutations, we examined the effect of α3β-HBSSOS on the growth and viability of cancer cells of different origins. We selected a panel of six human cancer cell lines derived from the pancreas, colon, and bladder, which harbor a variety of oncogenic proteins including mutant KRas (Table 3).
α3β-HBSSOS reduces cell viability in a dose dependent manner, with the effect spanning over four orders of magnitude. We divided the cell lines into two groups with respect to EC50 values (Table 3). […] We hypothesized that differential cellular uptake may account for the different potency of the peptides between the oncogenic and wild type RTK-Ras cell lines.

[2] = biological target: T1, wild type HRas (Homo sapiens, UniProt P01112); assay: RBD-pulldown of GTP-loaded Ras in MIA PaCa-2 cells; assay type: cell-based; details: 48 hours
T1 construct: levels of GTP-loaded endogenous HRas, KRas, and NRas proteins; endogenous in cells; host or cells: MIA PaCa-2
Method: (§1) To determine the effect of α3β-HBSSOS on Sos-mediated Ras activation in cells we treated MIA PaCa-2 cells, which harbor oncogenic KRas, with α3β-HBSSOS, control peptides, or vehicle control for 48 hours. Utilizing the RBD-pulldown assay we determined the levels of GTP-loaded endogenous HRas, KRas, and NRas proteins. As expected, MIA PaCa-2 cells display GTP-loading of all isoforms at steady state when treated with the vehicle control (FIGS. 11A-B).

[3] = biological target: T2, wild type NRas (Homo sapiens, UniProt P01111); assay: RBD-pulldown of GTP-loaded Ras in MIA PaCa-2 cells; assay type: cell-based; details: 48 hours
T2 construct: levels of GTP-loaded endogenous HRas, KRas, and NRas proteins; endogenous in cells; host or cells: MIA PaCa-2
Method: as §1

[4] = biological target: 6×His-tagged HRas WT 1-166 (UniProt P01112); assay: in vitro pull-down: fluorescein-tagged peptide on 6×His-HRas 1-166 / Ni-NTA beads, in-gel fluorescence

T2 sequence (P01111 whole entry): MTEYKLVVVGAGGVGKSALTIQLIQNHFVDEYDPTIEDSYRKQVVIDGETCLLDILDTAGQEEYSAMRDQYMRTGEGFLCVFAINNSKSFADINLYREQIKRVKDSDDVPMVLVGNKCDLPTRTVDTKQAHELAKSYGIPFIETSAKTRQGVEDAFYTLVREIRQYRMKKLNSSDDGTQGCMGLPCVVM

| Molecule | effect on cell growth relative to vehicle control [1] | GTP-loading of wild type HRas [2] | GTP-loading of wild type NRas [3] | fold greater affinity than α-HBSSOS [4] |
| --- | --- | --- | --- | --- |
| CC[C@H](C)[C@H](NC(=O)CN1C/C=C\CCC(=O)N[C@@H](Cc2ccccc2)C(=O)N[C@@H](CCC(=O)O)C1=O)C(=O)N[C@@H](Cc1ccc(O)cc1)C(=O)N[C@@H](CCCNC(=N)N)C(=O)N[C@@H](CC(C)C)C(=O)N[C@@H](CCC(=O)O)C(=O)N[C@@H](CC(C)C)C(=O)N[C@@H](CC(C)C)C(=O)N[C@@H](CCCCN)C(=O)N[C@@H](C)C(=O)N[C@@H](CCC(=O)O)C(=O)N[C@@H](CCC(=O)O)C(=O)N[C@@H](C)C(=O)N[C@@H](CC(N)=O)C(N)=O [α-HBSSOS, reference compound] | no effect on cell growth | – | – | – |
| ZAEG*iYRLeLLKaEAAA-NH2 [α3β-HBSMUT] | no effect on cell growth | not | not | – |
| FEGIYRLELLKAEEANK (not fully specified; printed as ZFEG*iYRLeLLKaEEANK(Flu)-NH2: Z = N-terminal 5-hexenoic acid residue; G* (position 3) = bridged allylglycine residue (hydrogen bond surrogate macrocycle between Z and G3); lowercase i (position 4), e (position 8), a (position 12) = β3-residues; K17 carries fluorescein (Flu); C-terminal amide) [α3β-HBSSOS-Flu] | – | – | – | 50 fold |
